Data reported in patent US7691864B2, “Anti-hypertensive composition and methods of treatment” (University of Florida, priority 1994, dated 2010).

System: Male Sprague Dawley rats
Assay: Blood pressure and heart rate in carotid-catheterized rats after I.P. dosing
Type: in vivo, rat
Experimental: Male Sprague Dawley rats averaging 400 g were anesthetized with sodium pentobarbital, 50 mg/kg I.P. The animals' neck and shoulder areas were shaved and prepped for surgery. The carotid artery was isolated and clamped using an arterial hemostat. A nick was made in the artery and a segment of PE-50 intramedic tubing was inserted, directed towards the heart and tied into place. The tubing was then flushed with heparin (100 μ/ml) and skin tunneled to the shoulder area. A stylet was inserted into the tip of the catheter to prevent blood leakage. The external incisions were closed with 11 mm staples.
The animals were fasted and allowed to recover overnight. The following morning, the stylet was removed and the tubing flushed with the heparin solution. The rats were placed into individual cages and hooked up to a transducer/oscillograph. The animals were allowed to stabilize in the cages for one-half hour before any recordings began. The oscillograph was then turned on and baseline recordings of the heart rate and blood pressure were made. The rats were given diethylhomospermine in sterile normal saline at a dose of 121.9 or 10 mg/kg I.P. The animals' heart rate and blood pressure were evaluated at t=0, 0.5 (or 1), 3, 5, 10, 15 and 20 minutes post-drug.

[1] = 10 mg/kg I.P., 10 min post-drug
[2] = 10 mg/kg I.P., 15 min post-drug
[3] = 10 mg/kg I.P., 20 min post-drug
[4] = 10 mg/kg I.P., time 0 min (baseline)
[5] = 121.9 mg/kg I.P., 0.5 min post-drug
[6] = 121.9 mg/kg I.P., 3 min post-drug
[7] = 121.9 mg/kg I.P., 5 min post-drug
[8] = 121.9 mg/kg I.P., 10 min post-drug
[9] = 121.9 mg/kg I.P., 15 min post-drug
[10] = 121.9 mg/kg I.P., 20 min post-drug
[11] = 121.9 mg/kg I.P., time 0 min (baseline)

In the case of `CCNCCCCNCCCCNCCCCNCC` [diethylhomospermine], the “Blood Pressure” value (10 mg/kg I.P., 1 min post-drug) is reported as 105/95, the “Heart Rate” value (10 mg/kg I.P., 1 min post-drug) is reported as 426 b.p.m and the “Blood Pressure” value (10 mg/kg I.P., 3 min post-drug) is reported as 110/99. The “Heart Rate” value (10 mg/kg I.P., 3 min post-drug) was 426 b.p.m, the “Blood Pressure” value (10 mg/kg I.P., 5 min post-drug) was 110/98 and the “Heart Rate” value (10 mg/kg I.P., 5 min post-drug) was 426 b.p.m. The “Blood Pressure” value [1] was 105/97, the “Heart Rate” value [1] was 402 b.p.m and the “Blood Pressure” value [2] was 105/97. The “Heart Rate” value [2] was 390 b.p.m, the “Blood Pressure” value [3] was 107/100 and the “Heart Rate” value [3] was 402 b.p.m. The “Blood Pressure” value [4] was 135/120, the “Heart Rate” value [4] was 414 b.p.m and the “Blood Pressure” value [5] was 75/68. The “Heart Rate” value [5] was 468 b.p.m, the “Blood Pressure” value [6] was 52/44 and the “Heart Rate” value [6] was 402 b.p.m. The “Blood Pressure” value [7] was 51/42, the “Heart Rate” value [7] was 354 b.p.m and the “Blood Pressure” value [8] was 42/40. For the same compound, the “Heart Rate” value [8] was 336 b.p.m, the “Blood Pressure” value [9] was 39/34 and the “Heart Rate” value [9] was 354 b.p.m. For the same compound, the “Blood Pressure” value [10] was 30/28, the “Heart Rate” value [10] was 348 b.p.m and the “Blood Pressure” value [11] was 130/120. For the same compound, the “Heart Rate” value [11] was 432 b.p.m.
